# According to US9493478B2, “Fused ring compound containing furan or salt thereof and pharmaceutical composition comprising same” (YUHAN CORPORATION, priority 2012, dated 2016):
# Experiments:
# Type in all cases: biochemical
# PI3Kγ (p120γ)(h) = PI3Kγ (p120γ)(h) (Homo sapiens, UniProt P48736); assay: Assay for phosphatidylinositol 3-kinase gamma (PI3Kγ) activity, PI3K-HTRF kit; settings: TR-FRET; enzyme 1.45 μg/ml, 10 μM PIP2, 10 μM ATP
# Method: (§1) The compounds of the present invention were assayed for the activity of phosphatidylinositol 3-kinase gamma (PI3Kγ) by using a PI3K enzyme-homogenous time resolved fluorescence (PI3K-HTRF) kit, which is available from Upstate (Millipore Co, Billerica, Mass., USA).
# (§2) Three kinds of buffer solutions including a phosphorylation reaction solution (a reaction buffer containing 40 mM MgCl2 which is available from Upstate was diluted 4 times and added with 5 mM DTT), a stop solution (STOP A and B solutions which are available from Upstate were mixed at a ratio of 3:1) and a fluorescence detection solution (Detection solutions A, B and C which are available from Upstate were mixed at a ratio of 1:1:18) were prepared. 1 mM of PIP2 substrate (phosphatidylinositol 4,5 biphosphate; Upstate), PI3Kγ (#14-558; Upstate) enzyme and 10 mM ATP (Sigma Aldrich Co., St. Louis, Mo., USA) were prepared. Each of PI3Kγ, 1 mM PIP2 and 10 mM ATP was diluted to 2.9 μg/ml (final reaction concentration: 1.45 μg/ml), 20 μM (final reaction concentration: 10 μM) and 40 μM (final reaction concentration: 10 μM), respectively. The buffer solution used for dilution and preparation process was the phosphorylation reaction solution. The stop solution was used for the termination of phosphorylation reaction, and the fluorescence detection solution was used for the detection of time-resolved fluorescence signals.
# (§3) Each test sample was transferred to a 384 well low flange white flat bottom microplate (#3572, Corning Life Sciences, Lowell, Mass., USA) by using a multi 8-channel (Pipetman Neo multi 8×20, Gilson, Middleton, Wis., USA) to make a final phosphorylation reaction volume of 20 μl per each well. For the negative control, 5 μl of 14.4% DMSO and 10 μl of PIP2 substration solution were used, and 5 μl of 14.4% DMSO and 10 μl of PIP2/PI3Kγ mixed solution were used as the positive control. For the test group, 5 μl of a solution prepared by dissolving the compound obtained in Example in DMSO and 10 μl of PIP2/PI3Kγ mixed solution were used. Before the initiation of the phosphorylation reaction, sample compounds were pretreated with the enzyme for approximately 10 minutes, and then the phosphorylation reaction was induced by adding 5 μl of ATP. Since each of the test compound and ATP takes up 25% of the total volume, and PIP2 and PI3Kγ take up 50% of the total volume during the reaction, each solution was concentrated 4 and 2 times, respectively, before mixing the solutions. Subsequently, the test sample was gently shook for 3 minutes and subjected to a phosphorylation reaction for 90 minutes at room temperature, which was then added with 5 μl of the stop solution to terminate the phosphorylation reaction. In order to induce a time-resolved fluorescence reaction, 5 μl of the fluorescence detection solution was added to the sample. The fluorescence detection solution contains biotin-phosphatidylinositol 3,4,5-triphosphate (PIP3), streptavidin-labeled Allopycocyanin (APC) and europium-labeled Pleckstrin homology domain (the PIP3 binds to PH domain), and the time-resolved fluorescence reaction is induced by a series of reaction of PH domain and PIP3, and biotin and streptavidin. The sample was left to stand for 6 hours at room temperature, and the time-resolved fluorescence resonance energy transfer (TR-FRET) rate was measured (emission wavelength: 665 nm, 620 nm, excitation wavelength: 340 nm) by using a Flexstation3 Micro plate reader (Molecular Devices, USA). TR-FRET Rate and TR-Inhibition Rate were calculated based on Equations 1 and 2 below, and the results are expressed in IC50, which is the concentration of a compound that inhibits 50% of PI3Kγ activity in vitro. TR-FRET Rate=(665 nm emission wavelength/620 nm emission wavelength)×10000 <Equation 1> TR-FRET Inhibition Rate=[(TR-FRET Rate of Sample−TR-FRET Rate of Negative Control)/(TR-FRET Rate of Positive Control−TR-FRET Rate of Negative Control)]×100 <Equation 2>
# PI3Kα (p110α/p85α)(h) = PI3Kα (p110α/p85α)(h) (Homo sapiens, UniProt P42336); assay: Assay for phosphatidylinositol 3-kinase alpha (PI3Kα) activity, PI3K-HTRF kit; settings: TR-FRET; enzyme 0.3625 μg/ml, 10 μM PIP2, 10 μM ATP
# Method: [The source words this procedure for another target and says it was used here with some conditions changed.] as §1, §2, §3
# PI3K β (p110β/p85α)(h) = PI3K β (p110β/p85α)(h) (Homo sapiens, UniProt P42338); assay: Assay for phosphatidylinositol 3-kinase beta (PI3Kβ) activity, PI3K-HTRF kit; settings: TR-FRET; enzyme 0.725 μg/ml, 10 μM PIP2, 10 μM ATP
# Method: [The source words this procedure for another target and says it was used here with some conditions changed.] as §1, §2
# as §3, with “2> […]” for “2>”
# PI3Kδ (p110δ/p85α)(h) = PI3Kδ (p110δ/p85α)(h) (Homo sapiens, UniProt O00329); assay: Assay for phosphatidylinositol 3-kinase delta (PI3Kδ) activity, PI3K-HTRF kit; settings: TR-FRET; enzyme 0.725 μg/ml, 10 μM PIP2, 10 μM ATP
# Method: [The source words this procedure for another target and says it was used here with some conditions changed.] as §1, §2
# as §3, with “2> […]” for “2>”
# Chain of PI3K β (p110β/p85α)(h) (P42338 whole entry): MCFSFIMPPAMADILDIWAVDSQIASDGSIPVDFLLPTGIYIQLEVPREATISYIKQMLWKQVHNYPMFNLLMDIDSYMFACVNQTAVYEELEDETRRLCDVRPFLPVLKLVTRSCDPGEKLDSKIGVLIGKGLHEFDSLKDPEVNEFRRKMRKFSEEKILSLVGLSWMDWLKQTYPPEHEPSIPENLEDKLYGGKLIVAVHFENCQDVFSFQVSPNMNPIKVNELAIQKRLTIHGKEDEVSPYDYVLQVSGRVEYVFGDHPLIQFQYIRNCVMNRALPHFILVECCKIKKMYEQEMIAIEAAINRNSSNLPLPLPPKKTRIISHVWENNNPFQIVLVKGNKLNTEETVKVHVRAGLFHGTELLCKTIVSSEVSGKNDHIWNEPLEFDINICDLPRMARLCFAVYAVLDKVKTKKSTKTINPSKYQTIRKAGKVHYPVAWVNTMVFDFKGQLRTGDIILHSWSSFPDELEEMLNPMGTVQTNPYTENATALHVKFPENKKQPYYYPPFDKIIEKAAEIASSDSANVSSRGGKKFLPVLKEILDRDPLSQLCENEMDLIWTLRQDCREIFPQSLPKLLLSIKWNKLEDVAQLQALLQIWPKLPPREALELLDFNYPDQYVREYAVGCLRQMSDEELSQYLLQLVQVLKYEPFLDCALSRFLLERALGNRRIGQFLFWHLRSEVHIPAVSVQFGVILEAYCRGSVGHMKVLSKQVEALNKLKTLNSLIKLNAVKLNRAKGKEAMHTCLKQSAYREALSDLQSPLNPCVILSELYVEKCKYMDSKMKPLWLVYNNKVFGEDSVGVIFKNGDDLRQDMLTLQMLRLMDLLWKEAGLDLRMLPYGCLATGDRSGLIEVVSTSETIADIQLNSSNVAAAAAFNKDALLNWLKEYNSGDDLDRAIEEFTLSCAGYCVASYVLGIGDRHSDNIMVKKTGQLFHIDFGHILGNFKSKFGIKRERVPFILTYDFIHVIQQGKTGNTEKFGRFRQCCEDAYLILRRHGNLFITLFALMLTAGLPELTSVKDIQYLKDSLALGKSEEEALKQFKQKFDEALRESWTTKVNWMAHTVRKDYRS
# Chain of PI3K β (p110β/p85α)(h) (P27986 whole entry partner): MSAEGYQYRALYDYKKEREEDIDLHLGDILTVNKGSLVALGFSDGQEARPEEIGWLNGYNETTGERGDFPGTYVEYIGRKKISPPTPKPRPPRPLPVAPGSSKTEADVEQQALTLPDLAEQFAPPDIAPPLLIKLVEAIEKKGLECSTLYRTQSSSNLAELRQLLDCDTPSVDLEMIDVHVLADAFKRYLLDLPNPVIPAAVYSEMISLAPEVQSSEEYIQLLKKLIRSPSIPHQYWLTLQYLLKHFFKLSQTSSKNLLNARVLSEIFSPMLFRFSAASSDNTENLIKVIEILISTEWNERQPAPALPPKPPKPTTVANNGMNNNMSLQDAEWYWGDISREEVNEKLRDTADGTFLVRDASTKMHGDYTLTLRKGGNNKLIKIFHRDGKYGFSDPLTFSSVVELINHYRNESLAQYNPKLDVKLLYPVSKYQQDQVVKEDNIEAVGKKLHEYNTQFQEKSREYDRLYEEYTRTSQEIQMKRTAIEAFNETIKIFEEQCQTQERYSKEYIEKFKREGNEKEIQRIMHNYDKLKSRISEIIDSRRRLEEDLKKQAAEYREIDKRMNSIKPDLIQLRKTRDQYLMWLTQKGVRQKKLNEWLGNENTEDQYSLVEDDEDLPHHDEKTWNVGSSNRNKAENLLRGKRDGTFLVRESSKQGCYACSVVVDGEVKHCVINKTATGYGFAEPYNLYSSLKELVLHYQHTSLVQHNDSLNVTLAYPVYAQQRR
# Chain of PI3Kγ (p120γ)(h) (P48736 whole entry): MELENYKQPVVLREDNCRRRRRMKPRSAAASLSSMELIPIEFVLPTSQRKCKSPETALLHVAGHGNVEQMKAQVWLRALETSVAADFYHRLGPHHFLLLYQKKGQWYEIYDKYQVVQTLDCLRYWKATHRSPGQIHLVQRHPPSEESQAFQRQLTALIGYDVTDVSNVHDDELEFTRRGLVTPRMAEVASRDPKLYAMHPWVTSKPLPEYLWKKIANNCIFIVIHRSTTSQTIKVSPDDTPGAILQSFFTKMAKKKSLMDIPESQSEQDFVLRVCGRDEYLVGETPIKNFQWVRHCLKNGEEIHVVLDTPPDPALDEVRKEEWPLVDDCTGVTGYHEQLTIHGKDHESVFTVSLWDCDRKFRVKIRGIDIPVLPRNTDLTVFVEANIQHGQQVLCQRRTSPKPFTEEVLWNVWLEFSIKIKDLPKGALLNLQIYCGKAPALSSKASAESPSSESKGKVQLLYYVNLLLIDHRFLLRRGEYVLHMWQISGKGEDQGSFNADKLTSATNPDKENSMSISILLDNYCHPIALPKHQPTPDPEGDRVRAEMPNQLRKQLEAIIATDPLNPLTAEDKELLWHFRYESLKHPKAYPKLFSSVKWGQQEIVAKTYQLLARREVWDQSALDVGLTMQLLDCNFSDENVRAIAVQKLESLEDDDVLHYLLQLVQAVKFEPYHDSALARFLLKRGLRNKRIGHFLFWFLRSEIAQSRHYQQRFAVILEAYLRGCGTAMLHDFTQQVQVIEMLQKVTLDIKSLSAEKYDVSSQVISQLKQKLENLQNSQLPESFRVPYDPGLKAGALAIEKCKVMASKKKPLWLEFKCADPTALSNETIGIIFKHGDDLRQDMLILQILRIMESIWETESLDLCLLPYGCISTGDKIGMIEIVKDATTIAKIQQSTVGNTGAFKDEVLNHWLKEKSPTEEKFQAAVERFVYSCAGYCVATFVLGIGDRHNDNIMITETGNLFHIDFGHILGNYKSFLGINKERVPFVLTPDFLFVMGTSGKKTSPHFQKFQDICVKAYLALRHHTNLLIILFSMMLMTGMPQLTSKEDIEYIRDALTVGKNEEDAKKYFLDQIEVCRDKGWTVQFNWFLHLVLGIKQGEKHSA
# Chain of PI3Kα (p110α/p85α)(h) (P42336 whole entry): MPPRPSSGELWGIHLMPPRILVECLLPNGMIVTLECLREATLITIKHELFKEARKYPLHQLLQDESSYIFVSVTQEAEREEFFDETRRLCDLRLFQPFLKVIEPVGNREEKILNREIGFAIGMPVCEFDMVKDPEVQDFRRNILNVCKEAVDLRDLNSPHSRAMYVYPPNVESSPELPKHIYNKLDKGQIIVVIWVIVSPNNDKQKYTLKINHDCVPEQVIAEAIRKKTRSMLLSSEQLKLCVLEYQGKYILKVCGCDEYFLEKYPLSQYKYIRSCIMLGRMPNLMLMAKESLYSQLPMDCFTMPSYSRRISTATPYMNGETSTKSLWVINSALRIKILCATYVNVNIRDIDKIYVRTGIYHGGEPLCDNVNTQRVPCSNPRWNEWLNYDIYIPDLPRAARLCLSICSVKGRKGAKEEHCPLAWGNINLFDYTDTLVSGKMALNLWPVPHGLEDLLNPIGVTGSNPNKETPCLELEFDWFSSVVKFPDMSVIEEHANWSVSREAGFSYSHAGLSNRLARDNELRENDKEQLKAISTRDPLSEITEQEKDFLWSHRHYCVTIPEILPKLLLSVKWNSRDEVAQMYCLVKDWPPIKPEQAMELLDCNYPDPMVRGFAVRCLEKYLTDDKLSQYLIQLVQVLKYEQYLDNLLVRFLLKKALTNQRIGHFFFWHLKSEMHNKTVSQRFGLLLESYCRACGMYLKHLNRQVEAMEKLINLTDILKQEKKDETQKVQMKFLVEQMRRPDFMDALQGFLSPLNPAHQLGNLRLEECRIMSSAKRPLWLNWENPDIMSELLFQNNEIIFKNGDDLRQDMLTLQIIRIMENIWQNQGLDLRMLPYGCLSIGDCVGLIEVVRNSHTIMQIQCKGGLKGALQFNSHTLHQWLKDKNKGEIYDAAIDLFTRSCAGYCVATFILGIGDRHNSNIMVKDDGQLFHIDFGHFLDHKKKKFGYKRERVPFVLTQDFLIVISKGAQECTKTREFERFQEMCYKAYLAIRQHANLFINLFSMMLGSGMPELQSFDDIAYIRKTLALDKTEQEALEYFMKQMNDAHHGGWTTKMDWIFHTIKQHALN
# Chain of PI3Kα (p110α/p85α)(h) (P27986 whole entry partner): as the sequence (P27986 whole entry partner) above
# Chain of PI3Kδ (p110δ/p85α)(h) (O00329 whole entry): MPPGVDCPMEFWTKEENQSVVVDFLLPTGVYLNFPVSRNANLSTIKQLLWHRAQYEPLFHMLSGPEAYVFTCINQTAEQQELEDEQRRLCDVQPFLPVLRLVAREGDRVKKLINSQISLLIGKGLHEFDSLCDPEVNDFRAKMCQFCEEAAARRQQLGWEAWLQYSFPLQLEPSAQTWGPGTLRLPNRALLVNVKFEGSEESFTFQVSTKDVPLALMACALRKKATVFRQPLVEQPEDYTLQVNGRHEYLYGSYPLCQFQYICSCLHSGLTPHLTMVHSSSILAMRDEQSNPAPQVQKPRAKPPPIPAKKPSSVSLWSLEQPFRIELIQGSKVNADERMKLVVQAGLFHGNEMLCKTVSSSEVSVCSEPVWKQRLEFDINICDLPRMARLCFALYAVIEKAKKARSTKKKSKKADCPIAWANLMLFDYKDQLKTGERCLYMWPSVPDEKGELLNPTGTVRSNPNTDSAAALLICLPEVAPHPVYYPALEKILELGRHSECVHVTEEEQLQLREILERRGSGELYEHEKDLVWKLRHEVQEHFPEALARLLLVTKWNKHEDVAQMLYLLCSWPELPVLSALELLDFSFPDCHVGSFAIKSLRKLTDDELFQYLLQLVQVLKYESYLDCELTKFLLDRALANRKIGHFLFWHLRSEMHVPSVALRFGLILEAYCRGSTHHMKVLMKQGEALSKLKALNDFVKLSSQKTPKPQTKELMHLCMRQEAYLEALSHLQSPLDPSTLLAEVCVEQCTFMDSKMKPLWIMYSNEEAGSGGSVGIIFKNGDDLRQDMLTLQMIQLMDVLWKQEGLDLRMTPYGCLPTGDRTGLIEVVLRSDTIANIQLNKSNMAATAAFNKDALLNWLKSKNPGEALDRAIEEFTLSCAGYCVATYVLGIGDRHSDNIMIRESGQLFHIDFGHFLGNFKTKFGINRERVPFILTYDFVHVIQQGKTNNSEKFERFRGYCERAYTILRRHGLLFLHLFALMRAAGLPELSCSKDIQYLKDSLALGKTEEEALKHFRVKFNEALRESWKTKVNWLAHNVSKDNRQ
# Chain of PI3Kδ (p110δ/p85α)(h) (P27986 whole entry partner): as the sequence (P27986 whole entry partner) above
Structure (SMILES),IC50 (PI3Kγ (p120γ)(h)) [nM],IC50 (PI3Kα (p110α/p85α)(h)) [nM],IC50 (PI3K β (p110β/p85α)(h)) [nM],IC50 (PI3Kδ (p110δ/p85α)(h)) [nM]
"COc1ncc(-c2cncc3cc(/C=C4\SC(=S)NC4=O)oc23)cc1C [Example 225, (Z)-5-[{7-(6-Methoxy-5-methylpyridin-3-yl)furo[3,2-c]pyridin-2-yl}methylene]-2-thioxothiazolidin-4-one]",43,4,> 10000,> 10000
"COC(=O)c1ccccc1C#Cc1cncc2cc(/C=C3\SC(=S)NC3=O)oc12 [Example 558, (Z)-Methyl 2-([2-{(4-oxo-2-thioxothiazolidin-5-ylidene)methyl}furo[3,2-c]pyridin-7-yl]ethynyl)benzoate]",10,3,468,41
"COC(=O)c1ccc(C#Cc2cncc3cc(/C=C4\SC(=O)NC4=O)oc23)cc1 [Example 532, (Z)-Methyl 4-([2-{(2,4-dioxothiazolidin-5-ylidene)methyl}furo[3,2-c]pyridin-7-yl]ethynyl)benzoate]",33,5,1390,137
"O=C1NC(=O)/C(=C/c2cc3cncc(-c4ccc(S(=O)(=O)NCCO)cc4)c3o2)S1 [Example 263, (Z)-4-[2-{(2,4-Dioxothiazolidin-5-ylidene)methyl}furo[3,2-c]pyridin-7-yl]-N-(2-hydroxyethyl)benzenesulfonamide]",28,16,1400,2500
"Cc1cc(C#Cc2cncc3cc(/C=C4\SC(=O)NC4=O)oc23)ccc1F [Example 453, (Z)-5-([7-{(4-Fluoro-3-methylphenyl)ethynyl}furo[3,2-c]pyridin-2-yl]methylene)thiazolidine-2,4-dione]",12,25,5070,801
"Cc1cc(-c2cncc3cc(/C=C4\SC(=S)NC4=O)oc23)cc(C)c1OC(C)C [Example 197, (Z)-5-[{7-(4-Isopropoxy-3,5-dimethylphenyl)furo[3,2-c]pyridin-2-yl}methylene]-2-thioxothiazolidin-4-one]",5,121,> 10000,> 10000
"COc1ccc(-c2cncc3cc(/C=C4\SC(=S)NC4=O)oc23)cc1F [Example 161, (Z)-5-[{7-(3-Fluoro-4-methoxyphenyl)furo[3,2-c]pyridin-2-yl}methylene]-2-thioxothiazolidin-4-one]",17,13,> 10000,191
"O=C1NC(=O)/C(=C/c2cc3cncc(C#CC4CCCC4)c3o2)S1 [Example 435, (Z)-5-[{7-(Cyclopentylethynyl)furo[3,2-c]pyridin-2-yl}methylene]thiazolidine-2,4-dione]",48,58,4340,4280
"COc1ccc(C#Cc2cncc3cc(/C=C4\SC(=O)NC4=O)oc23)cc1OC [Example 469, (Z)-5-([7-{(3,4-Dimethoxyphenyl)ethynyl}furo[3,2-c]pyridin-2-yl]methylene)thiazolidine-2,4-dione]",17,2,5090,37
"COc1c(C)cc(-c2cncc3cc(/C=C4\SC(=S)NC4=O)oc23)cc1C [Example 196, (Z)-5-[7-(4-Methoxy-3,5-dimethylphenyl)furo[3,2-c]pyridin-2-ylmethylene]-2-thioxothiazolidin-4-one]",7,10,> 10000,> 10000
"O=C1NC(=O)/C(=C/c2cc3cncc(-c4ccc(S(=O)(=O)N5CCCCC5)cc4)c3o2)S1 [Example 262, (Z)-5-([7-{4-(Piperidin-1-ylsulfonyl)phenyl}furo[3,2-c]pyridin-2-yl]methylene)thiazolidine-2,4-dione]",38,33,> 10000,> 10000
"CCOc1ccc(-c2cncc3cc(/C=C4\SC(=O)NC4=O)oc23)cc1C(F)(F)F [Example 94, (Z)-5-([7-{4-Ethoxy-3-(trifluoromethyl)phenyl}furo[3,2-c]pyridin-2-yl]methylene)thiazolidine-2,4-dione]",8,6,> 10000,> 10000
"O=C1NC(=O)/C(=C/c2cc3cncc(C#Cc4cccc(C(F)(F)F)c4)c3o2)S1 [Example 441, (Z)-5-{(7-[{3-(Trifluoromethyl)phenyl}ethynyl]furo[3,2-c]pyridin-2-yl)methylene}thiazolidine-2,4-dione]",10,2,> 10000,> 10000
"COc1c(C)cc(-c2cncc3cc(/C=C4\SC(=O)NC4=O)oc23)cc1C [Example 73, (Z)-5-[{7-(4-Methoxy-3,5-dimethylphenyl)furo[3,2-c]pyridin-2-yl}methylene]thiazolidine-2,4-dione]",10,10,> 10000,> 10000
"O=C1NC(=O)/C(=C/c2cc3cncc(-c4cccc(OCC(F)(F)F)c4)c3o2)S1 [Example 110, (Z)-5-([7-{3-(2,2,2-Trifluoroethoxyl)phenyl}furo[3,2-c]pyridin-2-yl]methylene)thiazolidine-2,4-dione]",96,–,293,4230
